# Laboratory results: ChEMBL document CHEMBL3885881, “DrugMatrix”
# Species on record: Rattus norvegicus
# Experiment: DrugMatrix - Regimen: Daily Repeat
# Type: toxicity, organism-based, Sprague-Dawley
# Set-up: regimen Daily Repeat, gender Male, age 6-8 weeks
# Conditions: in vivo, po, route oral GAVAGE, vehicle 100 % WATER; for ABSOLUTE BASOPHIL / ABSOLUTE EOSINOPHIL / ABSOLUTE LYMPHOCYTE / ABSOLUTE MONOCYTE / ABSOLUTE SEGMENTED NEUTROPHIL / BASOPHIL / EOSINOPHIL / ERYTHROCYTE COUNT / HEMATOCRIT / HEMOGLOBIN / LEUKOCYTE COUNT / LYMPHOCYTE / MEAN CORPUSCULAR HEMOGLOBIN / MEAN CORPUSCULAR HEMOGLOBIN CONCENTRATION / MEAN CORPUSCULAR VOLUME / MONOCYTE / NEUTROPHIL / NUCLEATED RED BLOOD CELLS / PLATELET COUNT: tissue Blood; for ALANINE AMINOTRANSFERASE / ALBUMIN / ALKALINE PHOSPHATASE / ASPARTATE AMINOTRANSFERASE / BLOOD UREA NITROGEN / CARBON DIOXIDE / CHLORIDE / CHOLESTEROL / CREATINE PHOSPHOKINASE / CREATININE / GLUCOSE / LACTATE DEHYDROGENASE / LIPASE / PHOSPHORUS / POTASSIUM / SODIUM / TOTAL BILIRUBIN / TOTAL PROTEIN / URIC ACID: tissue Plasma
# [1] = 20 mg/kg, 72 h, dose level Low, time 3 day
# [2] = 20 mg/kg, 120 h, dose level Low, time 5 day
# [3] = 266 mg/kg, 72 h, dose level High, time 3 day
# [4] = 266 mg/kg, 120 h, dose level High, time 5 day
smiles,measurement,setting,value
O=C(NCCN1CCOCC1)c1ccc(Cl)cc1 [MOCLOBEMIDE],ABSOLUTE BASOPHIL,[1],0 CELLS/uL
same,ABSOLUTE EOSINOPHIL,[1],175 CELLS/uL
same,ABSOLUTE LYMPHOCYTE,[1],12157.33 CELLS/uL
same,ABSOLUTE MONOCYTE,[1],176.67 CELLS/uL
same,ABSOLUTE SEGMENTED NEUTROPHIL,[1],691 CELLS/uL
same,BASOPHIL,[1],0%
same,EOSINOPHIL,[1],1%
same,ERYTHROCYTE COUNT,[1],5.68 x10E6/uL
same,HEMATOCRIT,[1],34.7%
same,HEMOGLOBIN,[1],13.23 G/DL
same,LEUKOCYTE COUNT,[1],13.2 x10E3/uL
same,LYMPHOCYTE,[1],92.33%
same,MEAN CORPUSCULAR HEMOGLOBIN,[1],23.33 pg
same,MEAN CORPUSCULAR HEMOGLOBIN CONCENTRATION,[1],38.13 G/DL
same,MEAN CORPUSCULAR VOLUME,[1],61.13 fL
same,MONOCYTE,[1],1.33%
same,NEUTROPHIL,[1],5.33%
same,NUCLEATED RED BLOOD CELLS,[1],0 /100WBC
same,PLATELET COUNT,[1],1220 x10E3/uL
same,ALANINE AMINOTRANSFERASE,[1],54.33 u/L
same,ALBUMIN,[1],4.07 G/DL
same,ALKALINE PHOSPHATASE,[1],345 u/L
same,ASPARTATE AMINOTRANSFERASE,[1],110.33 u/L
same,BLOOD UREA NITROGEN,[1],17.33 mg/dL
same,CARBON DIOXIDE,[1],23.67 mmol/L
same,CHLORIDE,[1],102.67 MEQ/L
same,CHOLESTEROL,[1],74 mg/dL
same,CREATINE PHOSPHOKINASE,[1],379 u/L
same,CREATININE,[1],0.2 mg/dL
same,GLUCOSE,[1],174.67 mg/dL
same,LACTATE DEHYDROGENASE,[1],728 u/L
same,LIPASE,[1],9.67 u/L
same,PHOSPHORUS,[1],14.07 mg/dL
same,POTASSIUM,[1],6.99 MEQ/L
same,SODIUM,[1],145.9 MEQ/L
same,TOTAL BILIRUBIN,[1],0.2 mg/dL
same,TOTAL PROTEIN,[1],5.7 G/DL
same,URIC ACID,[1],2.03 mg/dL
same,ABSOLUTE BASOPHIL,[2],0 CELLS/uL
same,ABSOLUTE EOSINOPHIL,[2],0 CELLS/uL
same,ABSOLUTE LYMPHOCYTE,[2],15547 CELLS/uL
same,ABSOLUTE MONOCYTE,[2],117.33 CELLS/uL
same,ABSOLUTE SEGMENTED NEUTROPHIL,[2],1669 CELLS/uL
same,BASOPHIL,[2],0%
same,EOSINOPHIL,[2],0%
same,ERYTHROCYTE COUNT,[2],5.91 x10E6/uL
same,HEMATOCRIT,[2],36.73%
same,HEMOGLOBIN,[2],14.33 G/DL
same,LEUKOCYTE COUNT,[2],17.33 x10E3/uL
same,LYMPHOCYTE,[2],89.67%
same,MEAN CORPUSCULAR HEMOGLOBIN,[2],24.33 pg
same,MEAN CORPUSCULAR HEMOGLOBIN CONCENTRATION,[2],39 G/DL
same,MEAN CORPUSCULAR VOLUME,[2],62.4 fL
same,MONOCYTE,[2],0.67%
same,NEUTROPHIL,[2],9.67%
same,NUCLEATED RED BLOOD CELLS,[2],0 /100WBC
same,PLATELET COUNT,[2],1391.67 x10E3/uL
same,ALANINE AMINOTRANSFERASE,[2],57 u/L
same,ALBUMIN,[2],4.1 G/DL
same,ALKALINE PHOSPHATASE,[2],322.67 u/L
same,ASPARTATE AMINOTRANSFERASE,[2],96.67 u/L
same,BLOOD UREA NITROGEN,[2],15 mg/dL
same,CARBON DIOXIDE,[2],27.33 mmol/L
same,CHLORIDE,[2],101.33 MEQ/L
same,CHOLESTEROL,[2],70.67 mg/dL
same,CREATINE PHOSPHOKINASE,[2],318 u/L
same,CREATININE,[2],0.17 mg/dL
same,GLUCOSE,[2],156.67 mg/dL
same,LACTATE DEHYDROGENASE,[2],488 u/L
same,LIPASE,[2],9.67 u/L
same,PHOSPHORUS,[2],13.7 mg/dL
same,POTASSIUM,[2],6.88 MEQ/L
same,SODIUM,[2],145.17 MEQ/L
same,TOTAL BILIRUBIN,[2],0.17 mg/dL
same,TOTAL PROTEIN,[2],5.83 G/DL
same,URIC ACID,[2],1.63 mg/dL
same,ABSOLUTE BASOPHIL,[3],0 CELLS/uL
same,ABSOLUTE EOSINOPHIL,[3],201.33 CELLS/uL
same,ABSOLUTE LYMPHOCYTE,[3],17920 CELLS/uL
same,ABSOLUTE MONOCYTE,[3],282 CELLS/uL
same,ABSOLUTE SEGMENTED NEUTROPHIL,[3],1130 CELLS/uL
same,BASOPHIL,[3],0%
same,EOSINOPHIL,[3],0.67%
same,ERYTHROCYTE COUNT,[3],5.8 x10E6/uL
same,HEMATOCRIT,[3],36.67%
same,HEMOGLOBIN,[3],14.43 G/DL
same,LEUKOCYTE COUNT,[3],19.53 x10E3/uL
same,LYMPHOCYTE,[3],92%
same,MEAN CORPUSCULAR HEMOGLOBIN,[3],24.93 pg
same,MEAN CORPUSCULAR HEMOGLOBIN CONCENTRATION,[3],39.37 G/DL
same,MEAN CORPUSCULAR VOLUME,[3],63.27 fL
same,MONOCYTE,[3],1.33%
same,NEUTROPHIL,[3],6%
same,NUCLEATED RED BLOOD CELLS,[3],0 /100WBC
same,PLATELET COUNT,[3],1228 x10E3/uL
same,ALANINE AMINOTRANSFERASE,[3],45 u/L
same,ALBUMIN,[3],4.27 G/DL
same,ALKALINE PHOSPHATASE,[3],348 u/L
same,ASPARTATE AMINOTRANSFERASE,[3],85.67 u/L
same,BLOOD UREA NITROGEN,[3],15.67 mg/dL
same,CARBON DIOXIDE,[3],27 mmol/L
same,CHLORIDE,[3],102 MEQ/L
same,CHOLESTEROL,[3],91.67 mg/dL
same,CREATINE PHOSPHOKINASE,[3],407 u/L
same,CREATININE,[3],0.2 mg/dL
same,GLUCOSE,[3],135.33 mg/dL
same,LACTATE DEHYDROGENASE,[3],202.33 u/L
same,LIPASE,[3],9.67 u/L
same,PHOSPHORUS,[3],12.33 mg/dL
same,POTASSIUM,[3],5.98 MEQ/L
same,SODIUM,[3],144.7 MEQ/L
same,TOTAL BILIRUBIN,[3],0.13 mg/dL
same,TOTAL PROTEIN,[3],5.67 G/DL
same,URIC ACID,[3],1.47 mg/dL
same,ABSOLUTE BASOPHIL,[4],0 CELLS/uL
same,ABSOLUTE EOSINOPHIL,[4],57.67 CELLS/uL
same,ABSOLUTE LYMPHOCYTE,[4],16939.67 CELLS/uL
same,ABSOLUTE MONOCYTE,[4],123 CELLS/uL
same,ABSOLUTE SEGMENTED NEUTROPHIL,[4],946.33 CELLS/uL
same,BASOPHIL,[4],0%
same,EOSINOPHIL,[4],0.33%
same,ERYTHROCYTE COUNT,[4],6.33 x10E6/uL
same,HEMATOCRIT,[4],38.47%
same,HEMOGLOBIN,[4],15.33 G/DL
same,LEUKOCYTE COUNT,[4],18.07 x10E3/uL
same,LYMPHOCYTE,[4],93.67%
same,MEAN CORPUSCULAR HEMOGLOBIN,[4],24.23 pg
same,MEAN CORPUSCULAR HEMOGLOBIN CONCENTRATION,[4],39.87 G/DL
same,MEAN CORPUSCULAR VOLUME,[4],60.77 fL
same,MONOCYTE,[4],0.67%
same,NEUTROPHIL,[4],5.33%
same,NUCLEATED RED BLOOD CELLS,[4],0 /100WBC
same,PLATELET COUNT,[4],1501 x10E3/uL
same,ALANINE AMINOTRANSFERASE,[4],44 u/L
same,ALBUMIN,[4],4.3 G/DL
same,ALKALINE PHOSPHATASE,[4],312.33 u/L
same,ASPARTATE AMINOTRANSFERASE,[4],75.67 u/L
same,BLOOD UREA NITROGEN,[4],16 mg/dL
same,CARBON DIOXIDE,[4],26 mmol/L
same,CHLORIDE,[4],100.67 MEQ/L
same,CHOLESTEROL,[4],75.67 mg/dL
same,CREATINE PHOSPHOKINASE,[4],226.33 u/L
same,CREATININE,[4],0.15 mg/dL
same,GLUCOSE,[4],155.33 mg/dL
same,LACTATE DEHYDROGENASE,[4],246.67 u/L
same,LIPASE,[4],10.33 u/L
same,PHOSPHORUS,[4],12.43 mg/dL
same,POTASSIUM,[4],6.84 MEQ/L
same,SODIUM,[4],143.43 MEQ/L
same,TOTAL BILIRUBIN,[4],0.17 mg/dL
same,TOTAL PROTEIN,[4],6.2 G/DL
same,URIC ACID,[4],2.3 mg/dL
